Test results taken from patent publication US20230099344A1, “COMPOUNDS AND METHODS FOR THE TARGETED DEGRADATION OF IRAK-4” (Arvinas Operations, Inc., priority 2021, published 2023).

Biological target: T1, IRAK-4 (Homo sapiens, UniProt Q9NWZ3)
T1 sequence (Q9NWZ3 1-460): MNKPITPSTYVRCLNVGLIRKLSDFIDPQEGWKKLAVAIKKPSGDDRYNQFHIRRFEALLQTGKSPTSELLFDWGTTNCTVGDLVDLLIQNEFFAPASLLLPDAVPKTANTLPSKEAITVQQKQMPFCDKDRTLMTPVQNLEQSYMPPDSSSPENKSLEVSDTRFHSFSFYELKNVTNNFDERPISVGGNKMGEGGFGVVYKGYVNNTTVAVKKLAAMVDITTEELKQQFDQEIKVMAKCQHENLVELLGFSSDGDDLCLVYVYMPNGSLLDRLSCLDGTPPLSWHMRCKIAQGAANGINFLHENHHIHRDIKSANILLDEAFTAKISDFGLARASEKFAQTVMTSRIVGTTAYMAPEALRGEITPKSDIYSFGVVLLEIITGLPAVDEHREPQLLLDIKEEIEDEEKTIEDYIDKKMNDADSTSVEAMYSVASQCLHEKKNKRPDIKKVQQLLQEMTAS
Assay: IRAK-4 ELISA, PBMC degradation
Type: cell-based
Set-up: endogenous in cells; host or cells: PBMC
Conditions: treated overnight
Method in brief: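 ELISA quantification of cellular IRAK-4 after compound treatment overnight; PBMC were plated at 2×10^6/ml, OCI-Ly10 at 1×10^6/ml.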

Row | SMILES | DC50 [nM] | Dmax [%] | PBMC DC90 | PBMC Dmax
1 | CCN(C1CCC(n2cc3cc(NC(=O)c4cnn5cccnc45)c(OCC4CC4)cc3n2)CC1)C1CN(c2ccc3c(c2)C(=O)N(C2CCC(=O)NC2=O)C3=O)C1 (stereo not drawn) [Example 325] | 1 to 5 | ≥ 90 | C (C represents a DC90 value ≥25.0 nM and <50 nM) | 
2 | O=C1CCC(N2C(=O)c3ccc(N4CC(N(CC(F)F)C5CCC(n6cc7cc(NC(=O)c8cnn9cccnc89)c(OCC8CC8)cc7n6)CC5)C4)cc3C2=O)C(=O)N1 (stereo not drawn) [Example 326] | 1 to 5 | ≥ 90 | B (B represents a DC90 value ≥10.0 nM and <25.0 nM) | 
3 | O=C1CCC(N2C(=O)c3ccc(N4CC(N(CC(F)(F)F)C5CCC(n6cc7cc(NC(=O)c8cnn9cccnc89)c(OCC8CC8)cc7n6)CC5)C4)cc3C2=O)C(=O)N1 (stereo not drawn) [Example 327] | ≥ 10 | 80 to 90 | D (D represents a DC90 value ≥50 nM) | 
4 | CC(C)Oc1cc2c(cc1NC(=O)c1cnn3cccnc13)CN(C1CCC(N(C)C3CN(c4ccc(C(=O)NC5CCC(=O)NC5=O)c(F)c4)C3)CC1)C2=O (stereo not drawn) [Example 328] | < 1 | ≥ 90 | A (A represents a DC90 value <10.0 nM) | 
5 | CC(C)Oc1cc2c(cc1NC(=O)c1cnn3cccnc13)CN(C1CCC(N(C)C3CN(c4ccc5c(c4)CN(C4CCC(=O)NC4=O)C5=O)C3)CC1)C2=O (stereo not drawn) [Example 329] |  |  | A (A represents a DC90 value <10.0 nM) | A (A represents a Dmax value ≥90)
6 | CC(C)Oc1cc2c(cc1NC(=O)c1cnn3cccnc13)CN([C@H]1CC[C@H](N(C)C3CN(c4ccc5c(c4)CN(C4CCC(=O)NC4=O)C5=O)C3)CC1)C2=O (stereo partly drawn) [Example 329] | < 1 |  |  | 
7 | CCN(C1CCC(N2Cc3cc(NC(=O)c4cnn5cccnc45)c(OC(C)C)cc3C2=O)CC1)C1CN(c2ccc3c(c2)CN(C2CCC(=O)NC2=O)C3=O)C1 (stereo not drawn) [Example 330] | < 1 | ≥ 90 | A (A represents a DC90 value <10.0 nM) | 
8 | CC(C)Oc1cc2c(cc1NC(=O)c1cnn3cccnc13)CN(C1CCC(N(CC(F)F)C3CN(c4ccc5c(c4)C(=O)N(C4CCC(=O)NC4=O)C5=O)C3)CC1)C2=O (stereo not drawn) [Example 331] | 1 to 5 | ≥ 90 | B (B represents a DC90 value ≥10.0 nM and <25.0 nM) | 
9 | CC(C)Oc1cc2c(cc1NC(=O)c1cnn3cccnc13)CN(C1CCC(N(CC(F)(F)F)C3CN(c4ccc5c(c4)C(=O)N(C4CCC(=O)NC4=O)C5=O)C3)CC1)C2=O (stereo not drawn) [Example 332] | ≥ 10 | ≥ 90 | D (D represents a DC90 value ≥50 nM) | 
10 | CN(C1CCC(N2Cc3cc(NC(=O)c4cnn5cccnc45)c(OC4CC4)cc3C2=O)CC1)C1CN(c2ccc3c(c2)C(=O)N(C2CCC(=O)NC2=O)C3=O)C1 (stereo not drawn) [Example 341] | < 1 | ≥ 90 | A (A represents a DC90 value <10.0 nM) | 
11 | CN(C1CCC(N2Cc3cc(NC(=O)c4cnn5cccnc45)c(OC4CC4)cc3C2=O)CC1)C1CCN(c2ccc3c(c2)C(=O)N(C2CCC(=O)NC2=O)C3=O)CC1 (stereo not drawn) [Example 342] | < 1 | ≥ 90 | A (A represents a DC90 value <10.0 nM) | 
12 | CN(C1CN(c2ccc3c(c2)C(=O)N(C2CCC(=O)NC2=O)C3=O)C1)[C@H]1CC[C@H](n2cc3cc(NC(=O)c4cnn5cccnc45)c(C4CC4)cc3n2)CC1 (stereo partly drawn) [Example 343] | < 1 | ≥ 90 | A (A represents a DC90 value <10.0 nM) | 
13 | CN(C1CCN(c2ccc3c(c2)C(=O)N(C2CCC(=O)NC2=O)C3=O)CC1)[C@H]1CC[C@H](n2cc3cc(NC(=O)c4cnn5cccnc45)c(C4CC4)cc3n2)CC1 (stereo partly drawn) [Example 344] | < 1 | ≥ 90 | A (A represents a DC90 value <10.0 nM) | 
14 | CN(C1CCC(N2Cc3cc(NC(=O)c4cnn5cccnc45)c(OCC4CC4)cc3C2=O)CC1)C1CN(c2ccc3c(c2)C(=O)N(C2CCC(=O)NC2=O)C3=O)C1 (stereo not drawn) [Example 345] | < 1 | ≥ 90 | A (A represents a DC90 value <10.0 nM) | 
15 | CC(C)Oc1cc2nn([C@H]3CC[C@H](N(C)CC4(F)CN(c5ccc6c(c5)C(=O)N(C5CCC(=O)NC5=O)C6=O)C4)CC3)cc2cc1NC(=O)c1cnn2cccnc12 (stereo partly drawn) [Example 347] | 1 to 5 | 80 to 90 | B (B represents a DC90 value ≥10.0 nM and <25.0 nM) | 
16 | CC(C)Oc1cc2nn([C@H]3CC[C@H](NCC4(F)CN(c5ccc6c(c5)C(=O)N(C5CCC(=O)NC5=O)C6=O)C4)CC3)cc2cc1NC(=O)c1cnn2cccnc12 (stereo partly drawn) [Example 348] | < 1 | ≥ 90 | A (A represents a DC90 value <10.0 nM) | 
17 | CN(CC1CCN(c2ccc3c(c2)C(=O)N(C2CCC(=O)NC2=O)C3=O)CC1)[C@H]1CC[C@H](n2cc3cc(NC(=O)c4cnn5cccnc45)c(OCC4CC4)cc3n2)CC1 (stereo partly drawn) [Example 349] | < 1 | 80 to 90 | A (A represents a DC90 value <10.0 nM) | 
18 | CN(CC1(F)CN(c2ccc3c(c2)C(=O)N(C2CCC(=O)NC2=O)C3=O)C1)[C@H]1CC[C@H](n2cc3cc(NC(=O)c4cnn5cccnc45)c(OCC4CC4)cc3n2)CC1 (stereo partly drawn) [Example 350] | 1 to 5 | 70 to 80 | B (B represents a DC90 value ≥10.0 nM and <25.0 nM) | 
19 | O=C1CCC(N2C(=O)c3ccc(N4CC(F)(CN[C@H]5CC[C@H](n6cc7cc(NC(=O)c8cnn9cccnc89)c(OCC8CC8)cc7n6)CC5)C4)cc3C2=O)C(=O)N1 (stereo partly drawn) [Example 351] | < 1 | 80 to 90 | A (A represents a DC90 value <10.0 nM) | 
20 | CN(CC1(F)CCN(c2ccc3c(c2)C(=O)N(C2CCC(=O)NC2=O)C3=O)CC1)[C@H]1CC[C@H](n2cc3cc(NC(=O)c4cnn5cccnc45)c(OCC4CC4)cc3n2)CC1 (stereo partly drawn) [Example 352] | 1 to 5 | 80 to 90 | B (B represents a DC90 value ≥10.0 nM and <25.0 nM) | 
21 | CN(C1CCC(n2cc3cc(NC(=O)c4cnn5cccnc45)c(OCC4CC4)cc3n2)CC1)C1CCN(c2ccc3c(c2)C(=O)N(C2CCC(=O)NC2=O)C3)CC1 (stereo not drawn) [Example 354] | < 1 | 70 to 80 | D (D represents a DC90 value ≥50 nM) | 
22 | CN(C1CCC(n2cc3cc(NC(=O)c4cnn5cccnc45)c(OCC4CC4)cc3n2)CC1)C1CN(c2ccc3c(c2)C(=O)N(C2CCC(=O)NC2=O)C3)C1 (stereo not drawn) [Example 355] | 1 to 5 | 80 to 90 | D (D represents a DC90 value ≥50 nM) | 
23 | CN(CC1(C)CCN(c2ccc3c(c2)C(=O)N(C2CCC(=O)NC2=O)C3=O)CC1)C1CCC(n2cc3cc(NC(=O)c4cnn5cccnc45)c(OCC4CC4)cc3n2)CC1 (stereo not drawn) [Example 356] | 1 to 5 | ≥ 90 | A (A represents a DC90 value <10.0 nM) | 
24 | CCN(C1CCN(c2ccc3c(c2)C(=O)N([C@@H]2CCC(=O)NC2=O)C3=O)CC1)[C@H]1C[C@H](n2cc3cc(NC(=O)c4cnn5cccnc45)c(OC(C)C)cc3n2)C1 [Example 377, N-(2-((1r,3r)-3-((1-(2-(2,6-dioxopiperidin-3-yl)-1,3-dioxoisoindolin-5-yl)piperidin-4-yl)(ethyl)amino)cyclobutyl)-6-isopropoxy-2H-indazol-5-yl)pyrazolo[1,5-a]pyrimidine-3-carboxamide] | 1 to 5 |  | B (B represents a DC90 value ≥10.0 nM and <25.0 nM) | A (A represents a Dmax value ≥90)
25 | Cn1c(=O)n(C2CCC(=O)NC2=O)c2cccc(N3CC(CN4CCC(n5cc6cc(NC(=O)c7cnn8cccnc78)c(C7CC7)cc6n5)CC4)C3)c21 (stereo not drawn) [Example 383] | < 1 | ≥ 90 | A (A represents a DC90 value <10.0 nM) | 
26 | CC(C)Oc1cc2c(cc1NC(=O)c1cnn3cccnc13)CN(C1CCN(CC3(F)CN(c4cccc5c4n(C)c(=O)n5C4CCC(=O)NC4=O)C3)CC1)C2=O (stereo not drawn) [Example 385] | < 1 | ≥ 90 | A (A represents a DC90 value <10.0 nM) | 
27 | CC(C)Oc1cc2nn(C3CCN(CC4(F)CN(c5cccc6c5n(C)c(=O)n6C5CCC(=O)NC5=O)C4)CC3)cc2cc1NC(=O)c1cnn2cccnc12 (stereo not drawn) [Example 386] | < 1 | ≥ 90 | A (A represents a DC90 value <10.0 nM) | 
28 | Cn1c(=O)n(C2CCC(=O)NC2=O)c2cccc(N3CC(F)(CN4CCC(n5cc6cc(NC(=O)c7cnn8cccnc78)c(OCC7CC7)cc6n5)CC4)C3)c21 (stereo not drawn) [Example 387] | < 1 | ≥ 90 | A (A represents a DC90 value <10.0 nM) | 
29 | CCN(C1CN(c2cccc3c2n(C)c(=O)n3C2CCC(=O)NC2=O)C1)[C@H]1CC[C@H](n2cc3cc(NC(=O)c4cnn5cccnc45)c(OC(C)C)cc3n2)CC1 (stereo partly drawn) [Example 388] | < 1 | ≥ 90 | A (A represents a DC90 value <10.0 nM) | 
30 | Cn1c(=O)n(C2CCC(=O)NC2=O)c2cccc(N3CCC(CN4CCC(n5cc6cc(NC(=O)c7cnn8cccnc78)c(OCC7CC7)cc6n5)CC4)CC3)c21 (stereo not drawn) [Example 390, N-(6-(cyclopropylmethoxy)-2-(1-((1-(1-(2,6-dioxopiperidin-3-yl)-3-methyl-2-oxo-2,3-dihydro-1H-benzo[d]imidazol-4-yl)piperidin-4-yl)methyl)piperidin-4-yl)-2H-indazol-5-yl)pyrazolo[1,5-a]pyrimidine-3-carboxamide] | < 1 | ≥ 90 | A (A represents a DC90 value <10.0 nM) | 
